Values after ≈ are worked out from the molar mass of the structure shown. “Also recorded” adds a separate entry of the source. Like-named read-outs stand apart in the source and are kept apart here.
Columns and labels:
Assay type in all cases: physicochemical
[1] = XRPD after Grinding; conditions: resulting form after grinding; listed as Form 12
[2] = Stability test (sealed vial 18 h), form by XRPD; conditions: resulting form
[3] = Storage stability of exposed powder at 25° C. and 60% RH for seven days, compared by XRPD; conditions: for Stability test (25° C. 60% RH-7 d): resulting form; for modifications in XRPD pattern after storage (structural stability): 60% RH and 25° C. for 7 days, exposed powder
Procedure: Approximately 30 mg of exposed powder of comparative form 1 and new forms II and III, respectively, were stored at 25′C and 60% RH for seven days. Each powder was then analyzed by XRPD and its diffraction pattern was compared with that of untreated sample.

[4] = Stability test (60° C. 75% RH-3 d), form by XRPD; conditions: resulting form
[5] = Dynamic vapor sorption (DVS) analysis / hygroscopicity (EP 7.0 classification); conditions: for Hygroscopically (DVS): DVS hygroscopicity class; for XRPD after DVS: resulting form after DVS; for hygroscopicity classification according to the European Pharmacopoeia (EP, version 7.0) / mass increase by dynamic vapor sorption analysis (hygroscopicity): 80% RH and 25° C.; for mass increase by dynamic vapor sorption analysis (hygroscopicity): first sorption cycle, relative to 40% RH; for Change In Mass (%) Desorption / Change In Mass (%) Hysteresis / Change In Mass (%) Sorption: DVS, 25° C.; for stability / XRPD pattern after DVS analysis: compared with untreated sample
Procedure: The hygroscopicity value is directly obtained from the sorption row at 80% RH, cycle 1.
Hygroscopicity of a sample of each of new form II and comparative form I was determined using the protocol provided below in conditions of 80% RH and 25° C.
The sample was subjected to DVS measuring using SMS-DVS intrinsic. The kinetic moisture sorption measurement was performed at 25° C. and in a RH % range described in the following: • From 40% RH to 90% RH • Form 90% RH to 0% RH • From 0% RH to 90% RH • From 90% RH to 0% RH
The sample was analyzed by XRPD after the analysis.
The hygroscopicity was calculated using the following equation: % Weight Change=[(W2−W1)/W1]*100 W1: weight of sample at the start of the experiment (25° C. and 40% RH) W2: weight of sample at 25° C. and 80% RH in the first absorption cycle

[6] = Stability test (exposed sample 16 h), form by XRPD; conditions: resulting form
[7] = DSC - differential scanning calorimetry; conditions: for DSC (onset) endo. solvent loss: endothermic event: solvent loss
Procedure: The analysis was carried out using a DSC Q200 TA instruments equipped with a refrigerator cooling system (RCS40) and autosampler. The sample was weighed in an aluminum hermetic pan with pinhole. The analysis was performed heating the sample from 25° C. to 350° C. at 10° C./min.

[8] = TGA / TGA-EGA thermogravimetric analysis with evolved gas analysis; conditions: for EGA: evolved solvent identified; for TGA overall weight loss: overall loss of the named solvent(s)
Procedure: The analysis was carried out using the Mettler Toledo TGA/DSC1. The sample was weighed in an aluminum pan hermetically sealed with an aluminum pierced cover. The analysis was performed heating the sample from 25° C. to 320° C. at 10° C./min. TGA-FTIR coupled with Thermo Nicoled is 10 spectometer. The analysis was carried out using the mettler toledo TGA/DSC1. The sample was weighed in an aluminum pan hermetically sealed with an aluminum pierced cover. The analysis was performed heating the sample from 25° C. to 320° C. at 10° C./min. The evolved gas is compared with ft-ir spectra database for identification.

[9] = Visual solubility in differing solvents (European Pharmacopeia 6.0 section 5.11); conditions: for solubility at 15 min: organic solvent or mixture, thermodynamic from solid; for visual solubility in water: water at 75° C.
Procedure: Visual solubility of certain forms (compounds) in differing solvents was assessed according to the procedure described in the European Pharmacopeia 6.0 section 5.11. p. The compound was shaken vigorously for 1 min and placed in a constant temperature device for 15 min at 25.0±0.5° C. If the compound was not completely dissolved, the shaking was repeated for 1 min and the tube placed in a constant temperature device for 15 min. 50 mg of compound was weighed in a stoppered tube, 0.05 mL of the solvent added and the Dissolving Procedure (see above) followed. If the compound was completely dissolved, it is very soluble. If the compound was not completely dissolved, a further 0.45 mL of the solvent was added and the Dissolving Procedure (see above) followed. […] If the compound was still not completely dissolved, still further 1.0 mL of the solvent was added and the Dissolving Procedure (see above) followed. If the compound was completely dissolved, it is soluble. If the compound was still not completely dissolved, another 3.5 mL of the solvent was added and the Dissolving Procedure (see above) followed. […] If the compound was still not completely dissolved, the compound is slightly soluble or very slightly soluble. In this case, and the suspension was heated up to the boiling point (max 80° C.) under stirring to verify the solubility at high temperature. The hot solution was afterwards cooled to room temperature to observe whether the compound precipitates. If the compound at room temperature was completely dissolved, it is soluble at high temperature. [table]

[10] = Micronization in fluid energy jet mill: particle size distribution and XRPD of product; conditions: for XRPD of micronized product versus starting material: after fluid energy jet milling
Text: Vilanterol trifenatate form II is fed to a fluid energy jet mill at 10-100 g/h, operated with N2 at a pressure of 1 to 8 bar for the venturi and a pressure of 1 to 8 bar for the ring.

OCc1cc([C@@H](O)CNCCCCCCOCCOCc2c(Cl)cccc2Cl)ccc1O [form XII, vilanterol trifenatate]
XRPD after Grinding [1]: Amorphous (few | Stability test (sealed vial 18 h) ([2]; listed as Form 12): Form 12 | Stability test (25° C. 60% RH-7 d) ([3]; listed as Form 12): Form 1 (almost | Stability test (60° C. 75% RH-3 d) ([4]; listed as Form 12): Form 1 (almost | Hygroscopically (DVS) ([5]; listed as Form 12): Slightly | XRPD after DVS ([5]; listed as Form 12): Form 1 | Stability test (exposed sample 16 h) ([6]; listed as Form 12): Form 12 | DSC (onset) endo. Form 1 melting ([7]; endothermic event: Form 1 melting, listed as Form 12): endo. 134 °C Form 1 | DSC (onset) endo. degradation ([7]; endothermic event: degradation, listed as Form 12): endo. 189 °C | DSC (onset) endo. solvent loss ([7]; listed as Form 12): endo. 21 °C solvent loss | EGA ([8]; listed as Form 12): Water and 1.2- | TGA overall weight loss ([8]; listed as Form 12): One loss of 61.6% w/w

OCc1cc([C@@H](O)CNCCCCCCOCCOCc2c(Cl)cccc2Cl)ccc1O [form VI, vilanterol trifenatate]
Stability test (sealed vial 18 h) ([2]; listed as Form 6): Form 6 | Stability test (25° C. 60% RH-7 d) ([3]; listed as Form 6): Form 1 (almost | Stability test (60° C. 75% RH-3 d) ([4]; listed as Form 6): Amorphous | Hygroscopically (DVS) ([5]; listed as Form 6): Slightly hygroscopic (Increase in mass is less than 2% and equal to or greater than 0.2%) | XRPD after DVS ([5]; listed as Form 6): Form 6 | Stability test (exposed sample 16 h) ([6]; listed as Form 6): Form 12 | DSC (onset) endo. solvent loss + melting ([7]; endothermic event: solvent loss + melting (Form 6: + Form 2 melting; Form 14: + Form 3 melting), listed as Form 6): endo. 80 °C solvent loss + | DSC (onset) endo. solvent loss ([7]; listed as Form 6): endo. 65 °C solvent loss | EGA ([8]; listed as Form 6): 2-Propanol | TGA overall weight loss ([8]; listed as Form 6): One weight loss of 73% w/w

OCc1cc([C@@H](O)CNCCCCCCOCCOCc2c(Cl)cccc2Cl)ccc1O [form II, vilanterol trifenatate]
solubility at 15 min ([9]; ethanol, 50 °C, ethanol at 50° C., read-out: visual solubility in ethanol): 10 to 33 mg/mL (≈ 20.6 to 67.8 mM) | visual solubility in water [9]: insoluble | modifications in XRPD pattern after storage (structural stability) [3]: No significant modifications in XRPD pattern | hygroscopicity classification according to the European Pharmacopoeia (EP, version 7.0) [5]: non-hygroscopic; also recorded: not hygroscopic | mass increase by dynamic vapor sorption analysis (hygroscopicity) [5]: 0.04% | mass increase by dynamic vapor sorption analysis (hygroscopicity) ([5]; listed as polymorph II): 0.04% | Change In Mass (%) Desorption ([5]; Cycle 1, target RH 0.0%): −0.03351% | Change In Mass (%) Desorption ([5]; Cycle 1, target RH 10.0%): −0.01706% | Change In Mass (%) Desorption ([5]; Cycle 1, target RH 20.0%): −0.00684% | Change In Mass (%) Desorption ([5]; Cycle 1, target RH 30.0%): 0.00031% | Change In Mass (%) Desorption ([5]; Cycle 1, target RH 40.0%): 0.00692% | Change In Mass (%) Hysteresis ([5]; Cycle 1, target RH 40.0%): 0.00707% | Change In Mass (%) Sorption ([5]; Cycle 1, target RH 40.0%): −0.00015% | Change In Mass (%) Desorption ([5]; Cycle 1, target RH 50.0%): 0.01476% | Change In Mass (%) Hysteresis ([5]; Cycle 1, target RH 50.0%): 0.00868% | Change In Mass (%) Sorption ([5]; Cycle 1, target RH 50.0%): 0.00607% | Change In Mass (%) Desorption ([5]; Cycle 1, target RH 60.0%): 0.02244% | Change In Mass (%) Hysteresis ([5]; Cycle 1, target RH 60.0%): 0.00892% | Change In Mass (%) Sorption ([5]; Cycle 1, target RH 60.0%): 0.01353% | Change In Mass (%) Desorption ([5]; Cycle 1, target RH 70.0%): 0.03051% | Change In Mass (%) Hysteresis ([5]; Cycle 1, target RH 70.0%): 0.00892% | Change In Mass (%) Sorption ([5]; Cycle 1, target RH 70.0%): 0.0216% | Change In Mass (%) Desorption ([5]; Cycle 1, target RH 80.0%): 0.04181% | Change In Mass (%) Hysteresis ([5]; Cycle 1, target RH 80.0%): 0.0043% | Change In Mass (%) Sorption ([5]; Cycle 1, target RH 80.0%): 0.0375% | Change In Mass (%) Desorption ([5]; Cycle 1, target RH 90.0%): 0.05802% | Change In Mass (%) Sorption ([5]; Cycle 1, target RH 90.0%): 0.05802% | Change In Mass (%) Sorption ([5]; Cycle 2, target RH 0.0%): −0.03351% | Change In Mass (%) Sorption ([5]; Cycle 2, target RH 10.0%): −0.0229% | Change In Mass (%) Sorption ([5]; Cycle 2, target RH 20.0%): −0.01545% | Change In Mass (%) Sorption ([5]; Cycle 2, target RH 30.0%): −0.00907% | Change In Mass (%) Sorption ([5]; Cycle 2, target RH 40.0%): −0.00261% | Change In Mass (%) Sorption ([5]; Cycle 2, target RH 50.0%): 0.00277% | Change In Mass (%) Sorption ([5]; Cycle 2, target RH 60.0%): 0.01068% | Change In Mass (%) Sorption ([5]; Cycle 2, target RH 70.0%): 0.01821% | Change In Mass (%) Sorption ([5]; Cycle 2, target RH 80.0%): 0.03189% | Change In Mass (%) Sorption ([5]; Cycle 2, target RH 90.0%): 0.04819% | stability / XRPD pattern after DVS analysis [5]: showed stability after DVS analysis | XRPD of micronized product versus starting material [10]: identical to the one of the starting material | particle size distribution Dv90 after micronization ([10]; fluid energy jet mill, N2): below 10 μm

OCc1cc([C@@H](O)CNCCCCCCOCCOCc2c(Cl)cccc2Cl)ccc1O [form I, 4-((1R)-2-((6-(2-((2,6-Dichlorophenyl)methoxy)ethoxy)hexyl)amino)-1-hydroxyethyl)-2-(hydroxymethyl)phenol triphenylacetate, reference compound]
visual solubility in 1,4-dioxane ([9]; 1,4-dioxane at 25° C.): freely soluble (a further 0.45 mL of the solvent was added and the Dissolving Procedure (see above) followed. If the compound was completely dissolved, it is freely soluble.) | solubility at 15 min ([9]; ethanol, 25 °C, ethanol at 25° C., read-out: visual solubility in ethanol): 10 to 33 mg/mL (≈ 20.6 to 67.8 mM) | solubility at 15 min ([9]; methanol, 25 °C, methanol at 25° C., read-out: visual solubility in methanol): 33 to 100 mg/mL (≈ 67.8 to 206 mM) | visual solubility in water [9]: insoluble | modifications in XRPD pattern after storage (structural stability) [3]: No significant modifications in XRPD pattern | hygroscopicity classification according to the European Pharmacopoeia (EP, version 7.0) [5]: non-hygroscopic | mass increase by dynamic vapor sorption analysis (hygroscopicity) [5]: 0.19% | stability / XRPD pattern after DVS analysis [5]: showed stability after DVS analysis | XRPD of micronized product versus starting material [10]: identical to that of the starting material | particle size distribution Dv50 after micronization ([10]; fluid energy jet mill, N2): 4.2 μm | particle size distribution Dv90 after micronization ([10]; fluid energy jet mill, N2): 9.6 μm

— US11414374B2, “Crystalline forms of vilanterol trifenatate and processes for their preparation” (Hovione Scientia Limited, priority 2017, dated 2022)
